Patent US20050124634A1, “1,4-dihydropyridine compounds, pharmaceutical compositions, and methods for the treatment of cardiovascular disease” (MYOGEN, INC., priority 2003, published 2005)

Key:
α-MyHC protein levels = assay: α-MyHC cytoblot assay in neonatal rat ventricular myocytes (NRVM); assay type: cell-based; conditions: for EC50: tested according to Example 1, read-out: MPE50 for increasing α-MyHC protein levels
Procedure: FIG. 1 Concentration-dependent effect of Compound 1 on α-MyHC protein levels in the cytoblot assay. NRVM are cultured for 3 days in serum-free medium in the presence of differing amounts of Compound 1. At the end of the culture period, NRVM are fixed and analyzed for α-MyHC protein levels using the BA-G5 monoclonal antibody specific for α-MyHC. Results are collected as RLU using a Packard Fusion Plate reader, and normalized to the signal from samples cultured in the absence of compound (control, set to 100%).
Preparation and culture of neonatal rat ventricular myocytes (NRVM) was performed by removing hearts from 1-3 day old rat neonatal pups, along with the atria and lungs. The ventricles were cut into smaller pieces and digested 3 times with collagenase for 20-30 min at 37° C. The myocytes were then separated from other cell types using a Percoll gradient. The myocyte layer was collected, washed 2 times, and plated on tissue culture grade 10 cm Petri dishes for 1-2 hrs. The non-adherent cells (myocytes) were removed and plated in Costar clear view 96 well plates coated with 0.2% gelatin for at least 2 hrs. The gelatin solution was removed, and the myocytes were resuspended in DMEM high glucose media (Mediatech) containing 10% charcoal/dextran treated FBS (Hyclone) and 1% Penicillin-Streptomycin-Glutamine (PSG, Gibco). Ten thousand NRVM were plated per well in a 100 μl volume, and incubated overnight at 37° C. in 5% CO2 in air. The following day, the media was replaced with 100 μl of serum-free DMEM high glucose medium supplemented with PSG and 0.3% Nutridoma-SP (Roche).
Compounds were reconstituted in DMSO at 30 mM, and aliquots were stored at −20° C. A 1:1000 dilution was prepared in serum-free DMEM medium supplemented with PSG and 0.3% Nutridoma, and sonicated for 5 min at room temperature. After sonication, additional 3 fold dilutions were prepared in the same medium. Diluted compound was then added to the NRVM cultures in a volume of 100 μl. A 100 mM thyroid hormone stock solution (T3, Calbiochem) was prepared in 100 mM NaOH and added at a final concentration of 3 nM in DMEM medium supplemented with PSG and 0.3% Nutridoma-SP (Roche). NRVM were cultured for 3 days before detection of α-myosin heavy chain (α-MyHC) protein levels in the cytoblot assay.
For the α-MyHC cytoblot assay, NRVM cultures were analyzed for α-MyHC protein levels after 3 days of incubation. NRVM were washed 2 times with PBS, fixed with methanol for 30 min at 4° C., and washed an additional 2 times with PBS. Blocking solution consisting of PBS with 1% bovine serum albumin (BSA, Fisher Biotech) was added for 1 hr at room temperature before addition of a saturating amount of supernatant containing an α-MyHC specific antibody for 60 min at room temperature (BA-G5 hybridoma, ATTC). Two washes were performed with PBS/1% BSA, and a 1:500 dilution of HRP-goat anti-mouse IgG (Southern Biotech) diluted in PBS/1% BSA was added for 60 min at room temperature. Excess antibody was removed with 3 PBS washes, and a chemiluminescent substrate was added (Pierce SuperSignal West Pico Chemiluminscent Substrate) for 5 min before quantitation on a Packard Fusion Plate Reader.
As shown above in Table 1, Compound 1 increased α-MyHC protein levels as determined by an α-MyHC cytoblot assay. Compound 1 was added to NRVM at concentration ranging from 3 nM to 30 μM. After 3 days of incubation with NRVM, α-MyHC protein levels were detected in the cytoblot assay and quantitated (FIG. 1). […] An increase in α-MyHC protein levels was first detected beginning at 30 nM, with a maximal response observed at 3 μM. In six independent experiments, the concentration of Compound 1 that gave a half-maximal response was on average 60 nM.

[1] = test system: secretion of atrial natriuretic factor; assay: Anti-hypertrophic activity in NRVM, ANF ELISA (ANF secretion); assay type: cell-based, rat; conditions: NRVM, hypertrophy induced by pharmacological stimuli; read-out: IC50 of the ANF ELISA (antihypertrophic activity)
Procedure: Anti-hypertrophic Activity of Racemic Compound 1 and Purified Enantiomers of Compound 1. Neonatal rat ventricular myocytes (NRVM) were isolated from 1 to 3 day-old Sprague-Dawley rats using enzymatic digestion and myocyte enrichment techniques. NRVM were cultured in serum-containing media for 18 hours. For the continuation of culture, serum-free media was used. Hypertrophy of NRVM was induced using pharmacological stimuli, including phenylephrine, endothelin-1, and […]. Hypertrophic responses were determined using methods including the following: measurement of total cellular protein; secretion of atrial natriuretic factor; determination of cell volume; determination of the expression of so-called fetal genes such as atrial natriuretic factor, beta-myosin heavy chain and alpha-skeletal actin. ANF secretion was the most sensitive assay for measuring hypertrophy, and the IC50 of the ANF ELISA was the measurement used to determine antihypertrophic activity.

Row | SMILES | % increase of a-MyHC over baseline at 10 mM Cpd (α-MyHC protein levels; NRVM, 3 days) [%] | other results
1 | CC(=O)C1=C(C)NC(SCC(=O)c2ccccc2Cl)=C(C#N)C1c1ccc(Cl)cc1 (racemic) [Compound 9] | 80 | 
2 | CC(=O)C1=C(C)NC(SCC(=O)c2ccccc2)=C(C#N)C1c1ccccc1 (racemic) [Compound 19] | 71 | 
3 | CC(=O)C1=C(C)NC(SCC(=O)c2ccc([N+](=O)[O-])cc2)=C(C#N)C1c1ccco1 (racemic) [Compound 36] | 115 | 
4 | CC(=O)C1=C(C)NC(SCC(=O)c2ccc(Cl)c(Cl)c2)=C(C#N)C1c1cccc(C)c1 (racemic) [Compound 20] | 79 | 
5 | CC(=O)C1=C(C)NC(SCC(=O)c2cccc([N+](=O)[O-])c2)=C(C#N)C1c1ccc(Cl)cc1 (racemic) [Compound 25] | 139 | 
6 | CC(=O)C1=C(C)NC(SCC(=O)c2cc(Cl)ccc2Cl)=C(C#N)C1c1cccs1 (racemic) [Compound 33] | 181 | 
7 | CC(=O)C1=C(C)NC(SCC(=O)c2ccc(Cl)cc2Cl)=C(C#N)C1c1ccco1 (racemic) [Compound 34] | 97 | 
8 | CC(=O)C1=C(C)NC(SCC(=O)c2cccc([N+](=O)[O-])c2)=C(C#N)C1c1ccccc1Cl (stereo not drawn) [R-enantiomer] |  | EC50 (α-MyHC protein levels): 0.79 µM; IC50 [1]: 1.1 µM
9 | CC(=O)C1=C(C)NC(SCC(=O)c2ccc(Cl)c(Cl)c2)=C(C#N)C1c1ccco1 (racemic) [Compound 35] |  | % increase of a-MyHC over baseline (at 3 µM) (α-MyHC protein levels; at 3 µM, NRVM, 3 days): 125 (at 3 mM) %
10 | CC(=O)C1=C(C)NC(SCC(=O)c2cccc(Br)c2)=C(C#N)C1c1ccccc1 (racemic) [Compound 16] | 143 | 
11 | CCc1ccc(C2C(C#N)=C(SCC(=O)c3cccc([N+](=O)[O-])c3)NC(C)=C2C(C)=O)cc1 (racemic) [Compound 24] | 130 | 
12 | CC(=O)C1=C(C)NC(SCC(=O)c2ccc(Cl)cc2Cl)=C(C#N)C1c1ccccc1 (racemic) [Compound 15] | 81 | 
13 | CC(=O)C1=C(C)NC(SCC(=O)c2ccc(Cl)cc2Cl)=C(C#N)C1c1ccc(Cl)cc1 (racemic) [Compound 8] | 29 | 
14 | CC(=O)C1=C(C)NC(SCC(=O)c2ccc(Cl)c(Cl)c2)=C(C#N)C1c1ccccc1Cl (racemic) [Compound 21] | 126 | 
15 | CC(=O)C1=C(C)NC(SCC(=O)c2cccc([N+](=O)[O-])c2)=C(C#N)C1c1cccs1 (racemic) [Compound 30] | 156 | 
16 | CC(=O)C1=C(C)NC(SCC(=O)c2ccc([N+](=O)[O-])cc2)=C(C#N)C1c1ccccc1 (racemic) [Compound 28] | 125 | 
17 | CC(=O)C1=C(C)NC(SCC(=O)c2ccc(Cl)cc2Cl)=C(C#N)C1c1ccc(F)cc1 (racemic) [Compound 11] | 51 | 
18 | CC(=O)C1=C(C)NC(SCC(=O)c2ccc([N+](=O)[O-])cc2)=C(C#N)C1c1ccccc1Cl (racemic) [Compound 14] | 24 | 
19 | CC(=O)C1=C(C)NC(SCC(=O)c2ccc(Cl)cc2)=C(C#N)C1c1ccccc1Cl (racemic) [Compound 5] | 52 | 

Row | SMILES | % increase of a-MyHC over baseline at 10 mM Cpd (α-MyHC protein levels; NRVM, 3 days) [%] | other results
20 | CC(=O)C1=C(C)NC(SCC(=O)c2ccc(Cl)cc2Cl)=C(C#N)C1c1cccs1 (racemic) [Compound 32] | 45 | 
21 | CC(=O)C1=C(C)NC(SCC(=O)c2ccc(Br)cc2)=C(C#N)C1c1ccccc1Cl (racemic) [Compound 6] | 53 | 
22 | CC(=O)C1=C(C)NC(SCC(=O)c2cc(Cl)ccc2Cl)=C(C#N)C1c1ccccc1Cl (racemic) [Compound 3] | 314 | 
23 | CC(=O)C1=C(C)NC(SCC(=O)c2cccc([N+](=O)[O-])c2)=C(C#N)C1c1ccccc1Cl (stereo not drawn) [S-enantiomer] |  | EC50 (α-MyHC protein levels): > 32 µM; IC50 [1]: 0.389 µM
24 | CC(=O)C1=C(C)NC(SCC(=O)c2ccccc2Cl)=C(C#N)C1c1ccccc1Cl (racemic) [Compound 4] | 135 | 
25 | CC(=O)C1=C(C)NC(SCC(=O)c2ccc(Cl)c(Cl)c2)=C(C#N)C1c1ccccc1 (racemic) [Compound 13] | 95 | 
26 | CC(=O)C1=C(C)NC(SCC(=O)c2ccc(Cl)c(Cl)c2)=C(C#N)C1c1cccs1 (racemic) [Compound 31] | 151 | 
27 | CC(=O)C1=C(C)NC(SCC(=O)c2ccc(Cl)c(Cl)c2)=C(C#N)C1c1ccc(F)cc1 (racemic) [Compound 10] | 88 | 
28 | CC(=O)C1=C(C)NC(SCC(=O)c2ccccc2)=C(C#N)C1c1ccccc1Cl (racemic) [Compound 26] | 161 | 
29 | CC(=O)C1=C(C)NC(SCC(=O)c2cc(Cl)ccc2Cl)=C(C#N)C1c1ccccc1 (racemic) [Compound 27] | 303 | 
30 | CC(=O)C1=C(C)NC(SCC(=O)c2ccc(Cl)c(Cl)c2)=C(C#N)C1c1cccc([N+](=O)[O-])c1 (racemic) [Compound 29] | 201 | 
31 | CC(=O)C1=C(C)NC(SCC(=O)c2cccc([N+](=O)[O-])c2)=C(C#N)C1c1cccc(C)c1 (racemic) [Compound 2] | 95 | 
32 | CC(=O)C1=C(C)NC(SCC(=O)c2ccc(Cl)cc2)=C(C#N)C1c1ccccc1 (racemic) [Compound 17] | 29 | 
33 | CC(=O)C1=C(C)NC(SCC(=O)c2ccc(F)cc2)=C(C#N)C1c1ccccc1 (racemic) [Compound 18] | 37 | 
34 | CC(=O)C1=C(C)NC(SCC(=O)c2ccc(Cl)cc2Cl)=C(C#N)C1c1ccccc1Cl (racemic) [Compound 22] | 81 | 
35 | CC(=O)C1=C(C)NC(SCC(=O)c2ccc(Br)cc2)=C(C#N)C1c1cccc([N+](=O)[O-])c1 (racemic) [Compound 12] | 34 | 
36 | CC(=O)C1=C(C)NC(SCC(=O)c2cc(Cl)ccc2Cl)=C(C#N)C1c1ccc(Br)cc1 (racemic) [Compound 23] | 70 | 
37 | CC(=O)C1=C(C)NC(SCC(=O)c2ccc(Cl)c(Cl)c2)=C(C#N)C1c1ccc(Cl)cc1 (racemic) [Compound 7] | 43 | 
